The text below walks through data of US11166947B2, “Effective dosing of a child for the treatment of ADHD with methylphenidate” (Neos Therapeutics, LP, priority 2016, dated 2021).

In brackets after ≈: the same amount, converted by molar mass.

The assay deals with pediatric patients with ADHD. The experiment in a line: Integrated PKPD model fit to SKAMP total score measurements from the Day 7 classroom evaluation. In kind it is in vivo, human. The following applies: base (final) PKPD model estimate, 81 pediatric patients. From the text:
This example describes the development of a pharmacokinetic-pharmacodynamic model for the therapeutic effect of a particular methylphenidate formulation and its testing on a population of pediatric patients with ADHD. The drug formulation tested in this example is designated MPH XR-ODT and described in U.S. Publication No. 2014/0030348, which is incorporated herein by reference.
The structural PK model for a plasma concentration following administration of the stimulant was described by two parallel inputs into a central compartment and linear elimination from the central compartment.
Body weight appears as a covariate of CL and V which was included in the model in the following way: CLi=tvCL*Weight^0.655 Equation 1 Vi=tvV*Weight^0.670 Equation 2 where CL, and V, are the clearance and volume of distribution parameters for individual “i”, tvCL and tvV are the typical population clearance and volume of distribution parameters, and weight is body weight in kg. Model parameters were determined using nonlinear mixed-effects modeling with first-order conditional maximum likelihood estimation using Phoenix NLME (Version 6.3).
This phenomenon was readily obvious in the patients that were assigned to the placebo treatment arm. Therefore, the PD model required a drug effect component and a placebo effect component. […]

In the case of `COC(=O)C(c1ccccc1)C1CCCCN1` (centres unmarked) [methylphenidate], the “Emax, maximum reduction in SKAMP total score with administration of methylphenidate” value is listed as 38.1. The EC50 (Homo sapiens, simulated plasma concentrations, read-out: EC50, concentration of methylphenidate required to achieve 50% of the maximal reduction in SKAMP total score) was 0.0142 µg/mL (≈ 0.061 µM).
